Assay results published in patent US4264620A, “Antihypertensive 5-substituted 2-pyrrolidinecarboxylic acids” (Santen Pharmaceutical Co., Ltd., priority 1978, dated 1981).

Experiments:
[1] = system: contractile response of isolated guinea-pig ileum to angiotensin I; experiment: Inhibition of contractile response of isolated guinea-pig ileum to angiotensin I (bioassay of angiotensin-converting enzyme inhibitory activity); settings: angiotensin I 0.1 μg/ml, Tyrode's solution 30° C., compound added 5 minutes before, read-out: Angiotensin I IC50: concentration of compound producing 50% inhibition of the contractive action of angiotensin I on the guinea-pig ileum
Description: As the method of measurement of angiotensin-converting enzyme activity, bioassay for the contractile response of isolated smooth muscle or the pressor response of normal animals and biochemical assay for the enzyme isolated from lung or other organs of animals are known. The former is found more advantageous than the latter for the examination of the convertion of angiotensin I to angiotensin II in vivo.
In the present study, therefore, we adopted the bioassay for contractile response of isolated guinea-pig ileum to angiotensin I.
(§1) Isolated guinea-pig ileum was suspended in the organ bath containing 20 ml of Tyrode's solution of 30° C. gassed with 95% O2 +5% CO2. The contraction induced by the addition of angiotensin I (0.1 μg/ml) at intervals of 10 minutes was recorded on a recticorder (Nihon Koden) for 90 seconds using FD pick up (ST-1T-H, Nihon Koden).
(§2) The test compounds were added to the bath 5 minutes before the addition of angiotensin I.
The inhibitory activity of angiotensin-converting enzyme was calculated by the following formula. [formula]

[2] = system: contractile response to bradykinin; experiment: Augmentation of contractile response of isolated guinea-pig ileum to bradykinin; settings: bradykinin 0.005 μg/ml, compound added 5 minutes before, read-out: Bradykinin AC50: concentration of compound producing 50% augmentation of the contractive action of bradykinin on the guinea-pig ileum
Experimental: as §1, §2
From the fact that kininase II, which destroys bradykinin having contractile action of isolated guinea-pig ileum, is thought to be identical with angiotensin-converting enzyme, augmentation of the contractile response to bradykinin by test compounds was examined by using bradykinin (0.005 μg/ml) in place of angiotensin I according to the above mentioned method.

[3] = biological target: T1, angiotensin-converting enzyme (Oryctolagus cuniculus, UniProt P12822); experiment: Inhibitory activity of angiotensin-converting enzyme extracted from rabbit lung (spectrophotometry, HHL substrate); format: biochemical; settings: 5 mM HHL, pH 8.3, 37° C., 30 minutes, read-out: Angiotensin-converting enzyme IC50: concentration of compound producing 50% inhibition against angiotensin-converting enzyme
T1 construct: extracted from rabbit lung; from tissue; host or cells: rabbit lung
T1 sequence (P12822 34-1310): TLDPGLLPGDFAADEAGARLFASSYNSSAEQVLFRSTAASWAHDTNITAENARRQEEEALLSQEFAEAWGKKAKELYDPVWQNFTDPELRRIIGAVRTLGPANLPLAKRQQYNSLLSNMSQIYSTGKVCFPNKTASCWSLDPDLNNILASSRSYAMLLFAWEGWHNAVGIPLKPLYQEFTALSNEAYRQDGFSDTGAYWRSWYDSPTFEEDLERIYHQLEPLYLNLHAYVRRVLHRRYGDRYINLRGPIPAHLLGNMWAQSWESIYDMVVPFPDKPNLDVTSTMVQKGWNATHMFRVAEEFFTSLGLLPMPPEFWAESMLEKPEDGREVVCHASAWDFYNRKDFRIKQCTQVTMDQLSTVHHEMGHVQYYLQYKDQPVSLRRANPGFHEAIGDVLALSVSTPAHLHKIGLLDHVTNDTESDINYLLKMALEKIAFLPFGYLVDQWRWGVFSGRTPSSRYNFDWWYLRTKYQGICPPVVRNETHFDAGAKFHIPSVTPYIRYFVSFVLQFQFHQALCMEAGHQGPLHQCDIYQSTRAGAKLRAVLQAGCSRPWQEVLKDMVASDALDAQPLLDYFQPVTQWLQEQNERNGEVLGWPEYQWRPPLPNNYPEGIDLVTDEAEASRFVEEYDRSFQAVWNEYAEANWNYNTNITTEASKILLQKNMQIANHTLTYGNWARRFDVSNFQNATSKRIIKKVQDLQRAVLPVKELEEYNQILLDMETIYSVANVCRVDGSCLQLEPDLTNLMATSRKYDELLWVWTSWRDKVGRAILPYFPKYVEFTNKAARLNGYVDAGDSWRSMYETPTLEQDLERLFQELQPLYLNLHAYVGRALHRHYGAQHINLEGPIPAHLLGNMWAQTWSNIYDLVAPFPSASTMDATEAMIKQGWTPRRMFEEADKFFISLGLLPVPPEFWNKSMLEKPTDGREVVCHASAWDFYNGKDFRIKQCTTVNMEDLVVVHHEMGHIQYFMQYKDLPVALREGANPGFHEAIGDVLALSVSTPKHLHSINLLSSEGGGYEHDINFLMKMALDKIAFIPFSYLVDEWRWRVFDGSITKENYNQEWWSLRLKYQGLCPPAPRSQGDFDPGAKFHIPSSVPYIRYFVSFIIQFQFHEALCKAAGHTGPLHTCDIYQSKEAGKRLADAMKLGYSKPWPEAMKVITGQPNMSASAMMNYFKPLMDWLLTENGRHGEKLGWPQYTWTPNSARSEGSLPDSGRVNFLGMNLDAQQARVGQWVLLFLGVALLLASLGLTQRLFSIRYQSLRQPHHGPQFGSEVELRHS
Experimental: The activity of angiotensin-converting enzyme was measured by spectrophotometry according to the method of Biochem. Pharmacol., 20. 1637 (1971). That is, the absorbance of hippuric acid was measured, which is liberated by incubating hippuryl-L-histidyl-L-leucine (HHL) as substrate in the presence of angiotensin-converting enzyme extracted from rabbit lung. The reaction mixture is as follows: 100 mM phosphate buffer (pH 8.3) 300 mM sodium chloride 5 mM HHL […] enzyme inhibitor 5 mU enzyme 0.25 ml of the above mixture was incubated at 37° C. for 30 minutes and the reaction was stopped by adding 0.25 ml of 1 N hydrochloric acid. […] The absorbance of this solution was measured at 228 nm.

Acute toxicity test = format: in vivo; settings: mouse, in vivo, ip
Experimental: (§3) The male ddy-std strain mice (4 weeks of age, weighing 19-21 g) were placed in a breeding room of constant temperature and humidity (23±1° C., 55±5%) and fed freely pellet diet (CE-2, Clea Japan Inc.) and water ad. libitum for a week. The mice showing the normal growth were selected for the experiment.
(§4) Test compounds are suspended in 0.5% tragacanth solution, and administered intraperitoneally in a dose of 0.5 ml of 20 g body weight.

male ddy-std strain mice = experiment: Acute toxicity test; format: in vivo; settings: male ddy-std mice, intraperitoneally
Experimental: as §3, §4

Compound: C[C@H](CS)C(=O)N1C(C(=O)O)CCC1c1ccccc1O (single isomer, unassigned) [Compound C]
- IC50 [1]: 160 nM
- AC50 [2]: 2 nM
- IC50 [3]: 1100 nM

Compound: C[C@H](CS)C(=O)N1CSC[C@H]1C(=O)O [Compound Z, (4R)-3-[(2S)-3-mercapto-2-methylpropanoyl]-4-thiazolidinecarboxylic acid, reference compound]
- IC50 [1]: 170 nM
- AC50 [2]: 2.6 nM

Compound: C[C@H](CS)C(=O)N1C(C(=O)O)CCC1c1ccccc1O (single isomer, unassigned) [Compound D]
- IC50 [1]: 150 nM
- AC50 [2]: 2.6 nM
- IC50 [3]: 1200 nM

Compound: O=C(O)C1CCC(c2ccccc2O)N1C(=O)CCS (stereo not drawn) [Compound E, α1-5-(2-hydroxyphenyl)-1-(3-mercaptopropanoyl)-2-pyrrolidinecarboxylic acid]
- IC50 [1]: 76 nM
- AC50 [2]: 0.95 nM
- IC50 [3]: 65 nM

Compound: O=C(O)C1CCC(c2ccccc2O)N1C(=O)CCS (stereo not drawn) [Compound A, α-5-(2-hydroxyphenyl)-1-(3-mercaptopropanoyl)-2-pyrrolidinecarboxylic acid]
- IC50 [1]: 170 nM
- AC50 [2]: 1.8 nM
- IC50 [3]: 560 nM
- LD50 (Acute toxicity test): 1000 to 1250 mg/kg
- Acute toxicity (result in words) (male ddy-std strain mice): low

Compound: O=C(O)C1CCC(c2ccc(O)cc2)N1C(=O)CCS (stereo not drawn) [Compound B, α-5-(4-hydroxyphenyl)-1-(3-mercaptopropanoyl)-2-pyrrolidinecarboxylic acid]
- IC50 [1]: 480 nM
- AC50 [2]: 9.8 nM
- IC50 [3]: 440 nM
